Data from ChEMBL document CHEMBL4431321, “Profiling of Flavonol Derivatives for the Development of Antitrypanosomatidic Drugs” (J Med Chem, 2016).

tested on: Trypanosoma brucei brucei; experiment: Antitrypanosomal activity against Trypanosoma brucei brucei Lister 427 bloodstream forms after 72 hrs by resazurin-based assay; type: functional, organism-based; details: Lister 427, 72 h

Structure (SMILES)	IC50 [µM]
COc1cc(-c2cc(=O)c3c(O)cc(O)cc3o2)ccc1O [CHRYSOERIOL]	< 30
COc1cccc(/C=C/C(=O)O)c1	< 30
O=C(O)/C=C/c1cccc(O)c1	< 30
O=c1cc(-c2ccc(O)c(O)c2)oc2cc(O[C@@H]3O[C@@H](CO)[C@H](O)[C@@H](O)[C@@H]3O)cc(O)c12	< 30
CC1(C(=O)O)CCC2(C)CCC3(C)C(=CC(=O)C4C5(C)CCC(OC6OC(C(=O)O)C(O)C(O)C6OC6OC(C(=O)O)C(O)C(O)C6O)C(C)(C)C5CCC43C)C2C1 (stereo not given)	< 30
C[C@H]1O[C@@H](O[C@@H]2[C@H](Oc3cc(O)c4c(c3)OC(c3ccc(O)cc3)CC4=O)O[C@@H](CO)[C@H](O)[C@H]2O)[C@@H](O)[C@@H](O)[C@@H]1O (stereo not given in full)	< 30
O=c1cc(-c2ccccc2)oc2cc(O)cc(O)c12 [CHRYSIN]	< 30
COc1ccc([C@H]2CC(=O)c3c(O)cc(O[C@@H]4O[C@H](CO)[C@@H](O)[C@H](O)[C@H]4O[C@@H]4O[C@@H](C)[C@H](O)[C@@H](O)[C@H]4O)cc3O2)cc1O	< 30
O=C(O)/C=C/c1ccc(O)c(O)c1 [CAFFEIC ACID]	< 30
O=C(O)/C=C/c1ccc(O)cc1 [COUMARIC ACID]	< 30
O=C1c2c(O)cccc2C(C2OC(CO)C(O)C(O)C2O)c2cc(CO)cc(O)c21 (stereo not given)	< 30
O=c1oc2c(O)c(O)cc3c(=O)oc4c(O)c(O)cc1c4c23	< 30
O=C(O)/C=C/c1ccccc1O [O-COUMARIC ACID]	< 30
COc1ccc(/C=C/C(=O)O)cc1O [ISOFERULIC ACID]	< 30
Cc1cc(O)c2c(c1)C(=O)c1cc(O)cc(O)c1C2=O [EMODIN]	< 30
COc1cc(O)c2c(=O)cc(-c3ccccc3)oc2c1 [TECHTOCHRYSIN]	< 30
COc1cc(OC)c2c(=O)cc(-c3ccccc3)oc2c1 [CHRYSIN DIMETHYL ETHER]	< 30
Oc1cc(O)c2c(c1)O[C@H](c1ccc(O)c(O)c1)[C@H](O)C2 [(-)-EPICATECHIN]	< 30
O=c1cc(-c2ccc(O)c(O)c2)oc2cc(O)cc(O)c12 [LUTEOLIN]	< 30
O=C(/C=C/c1ccc(O)c(O)c1)O[C@@H]1C[C@](O)(C(=O)O)C[C@@H](O)[C@H]1O [CHLOROGENIC ACID]	< 30
COc1ccc([C@@H]2CC(=O)c3c(O)cc(O)cc3O2)cc1O [HESPERETIN]	< 30
O=c1cc(-c2ccccc2)oc2cccc(O)c12 [5-HYDROXYFLAVONE]	< 30
COc1ccc([C@H]2CC(=O)c3c(O)cc(O[C@@H]4O[C@H](CO[C@@H]5O[C@@H](C)[C@H](O)[C@@H](O)[C@H]5O)[C@@H](O)[C@H](O)[C@H]4O)cc3O2)cc1O	< 30
COc1cc(/C=C/C(=O)O)ccc1O [FERULATE]	< 30
O=C1CC(c2ccc(O)cc2)Oc2cc(O)cc(O)c21 (stereo not given)	< 30
Oc1cc(O)c2c(c1)O[C@H](c1ccc(O)c(O)c1)[C@@H](O)C2 [CIANIDANOL]	< 30
O=c1cc(-c2ccccc2)oc2ccccc12 [FLAVONE]	< 30
O=C(O)c1cc(O)c(O)c(O)c1 [GALLIC ACID]	< 30

tested on: not listed separately; experiment: in vitro; details: human, THP-1 cells
Description: Selectivity index, ratio of CC50 for human THP1 cells to EC50 for Trypanosoma brucei brucei Lister 427 bloodstream forms

Structure (SMILES)	selectivity ratio
N=C(N)c1ccc(OCCCCCOc2ccc(C(=N)N)cc2)cc1 [PENTAMIDINE]	6440

tested on: not listed separately; experiment: Cytotoxicity against human THP1 cells after 72 hrs by MTT assay; type: cell-based; details: THP-1 cells, read-out: NOAEL

Structure (SMILES)	MNTC at 72 h [µM]
N=C(N)c1ccc(OCCCCCOc2ccc(C(=N)N)cc2)cc1 [PENTAMIDINE]	10
